Assay results as given in patent US9580390B2, “Indazole compounds as kinase inhibitors and method of treating cancer with same” (University Health Network, priority 2011, dated 2017).
Like-named read-outs stand apart in the source and are kept apart here.

Assays:
TICs (Ovarian 2393A) = assay: Ovarian tumor-initiating cell growth inhibition (Alamar Blue); format: cell-based; conditions: 6 days, read-out: Tumor Initiating Cell GI50 Range Ovarain 2393A
TICs (Colon 12) = assay: Colon tumor-initiating cell growth inhibition (Alamar Blue); format: cell-based; conditions: 9 days, read-out: Tumor Initiating Cell GI50 Range Colon 12
human TTK = target: T1, human TTK (Homo sapiens, UniProt P33981); assay: TTK inhibition assay (indirect ELISA); format: biochemical
T1 construct: amino terminal GST fusion of full length human TTK; purchased Invitrogen
T1 sequence (P33981 1-857): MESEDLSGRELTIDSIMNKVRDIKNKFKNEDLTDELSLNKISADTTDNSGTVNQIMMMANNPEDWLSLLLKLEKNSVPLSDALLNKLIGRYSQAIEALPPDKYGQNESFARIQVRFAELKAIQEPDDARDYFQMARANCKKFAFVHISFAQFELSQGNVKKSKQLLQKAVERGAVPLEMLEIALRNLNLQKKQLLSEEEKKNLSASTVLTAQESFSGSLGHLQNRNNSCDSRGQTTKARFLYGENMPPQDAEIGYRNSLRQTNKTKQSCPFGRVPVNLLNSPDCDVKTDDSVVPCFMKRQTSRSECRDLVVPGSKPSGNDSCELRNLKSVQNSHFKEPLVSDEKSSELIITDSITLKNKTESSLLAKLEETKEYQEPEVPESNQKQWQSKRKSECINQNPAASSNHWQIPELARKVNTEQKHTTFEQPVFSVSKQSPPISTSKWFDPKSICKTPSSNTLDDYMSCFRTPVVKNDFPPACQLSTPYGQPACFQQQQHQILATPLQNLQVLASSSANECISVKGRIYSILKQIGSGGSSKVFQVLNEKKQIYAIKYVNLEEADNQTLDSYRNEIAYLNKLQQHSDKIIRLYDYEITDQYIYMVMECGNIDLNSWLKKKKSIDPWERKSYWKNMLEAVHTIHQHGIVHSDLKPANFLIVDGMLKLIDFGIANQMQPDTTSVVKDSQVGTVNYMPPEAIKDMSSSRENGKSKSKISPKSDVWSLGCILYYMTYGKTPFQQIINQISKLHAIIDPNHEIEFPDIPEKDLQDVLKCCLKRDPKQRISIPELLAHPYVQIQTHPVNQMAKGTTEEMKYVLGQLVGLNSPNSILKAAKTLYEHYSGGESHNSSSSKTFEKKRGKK

[1] = test system: ovarian cancer cells (PA-1); assay: Cancer cell line growth inhibition (SRB assay); format: cell-based; conditions: read-out: Cancer Cell Line GI50 Range PA-1
[2] = test system: colon cancer cells (HCT116); assay: Cancer cell line growth inhibition (SRB assay); format: cell-based; conditions: read-out: Cancer Cell Line GI50 Range HCT116
[3] = 144 h, ovarian TICs, Alamar Blue
[4] = PA-1 ovarian cancer cells, SRB assay
[5] = Homo sapiens, HCT-116, HCT116 colon cancer cells, SRB assay

CN1CCN(c2ccc(-c3n[nH]c4ccc(C(=O)NCC5(N6CCOCC6)CCCCC5)cc34)cc2)CC1 [Example A453, 3-(4-(4-methylpiperazin-1-yl)phenyl)-N-((1-morpholinocyclohexyl)methyl)-1H-indazole-5-carboxamide]
100 to 500 nM: GI50 (TICs (Ovarian 2393A); [3])
< 100 nM: GI50 (TICs (Colon 12); 216 h, colon TICs, Alamar Blue) | IC50 (human TTK; read-out: TTK IC50 Range) | GI50 [1, 4] | GI50 [2, 5]

O=CN1C2CCC1CC(Oc1ccc(-c3n[nH]c4ccc(C(=O)N[C@H](c5ccccc5Cl)C5CC5)cc34)cc1)C2 (stereo partly drawn) [Example A350, N-((S)-(2-chlorophenyl)(cyclopropyl)methyl)-3-(4-(((1R,3R,5S)-8-formyl-8-azabicyclo[3.2.1]octan-3-yl)oxy)phenyl)-1H-indazole-5-carboxamide]
< 100 nM: GI50 (TICs (Ovarian 2393A); 144 h, Ovarian 2393A TICs) | GI50 (TICs (Colon 12); 216 h, Colon 12 TICs) | IC50 (human TTK; read-out: TTK IC50 Range) | GI50 ([1]; Homo sapiens, PA-1) | GI50 ([2]; Homo sapiens, HCT-116)

O=CN1[C@@H]2CC[C@H]1C[C@@H](Oc1ccc(-c3n[nH]c4ccc(C(=O)NC(c5ccsc5)C5CCC5)cc34)cc1)C2 (stereo partly drawn) [Example A329, N-(cyclobutyl(thiophen-3-yl)methyl)-3-(4-(((1R,3R,5S)-8-formyl-8-azabicyclo[3.2.1]octan-3-yl)oxy)phenyl)-1H-indazole-5-carboxamide]
< 100 nM: GI50 (TICs (Ovarian 2393A); 144 h, Ovarian 2393A TICs) | GI50 (TICs (Colon 12); 216 h, Colon 12 TICs) | IC50 (human TTK; read-out: TTK IC50 Range) | GI50 ([1]; Homo sapiens, PA-1) | GI50 ([2]; Homo sapiens, HCT-116)

O=CN1C2CCC1CC(Oc1ccc(-c3n[nH]c4ccc(C(=O)N[C@H](c5ccccc5)C5CC5)cc34)cc1)C2 (stereo partly drawn) [Example A328, N-((S)-cyclopropyl(phenyl)methyl)-3-(4-(((1R,3R,5S)-8-formyl-8-azabicyclo[3.2.1]octan-3-yl)oxy)phenyl)-1H-indazole-5-carboxamide]
< 100 nM: GI50 (TICs (Colon 12); 216 h, Colon 12 TICs) | IC50 (human TTK; read-out: TTK IC50 Range) | GI50 ([1]; Homo sapiens, PA-1) | GI50 ([2]; Homo sapiens, HCT-116)
100 to 500 nM: GI50 (TICs (Ovarian 2393A); 144 h, Ovarian 2393A TICs)

C[C@@H](O)CN1CCC(Oc2ccc(-c3n[nH]c4ccc(C(=O)N[C@H](c5ccccn5)C5CC5)cc34)cc2)CC1 [Example A221, N-((S)-cyclopropyl(pyridin-2-yl)methyl)-3-(4-((1-((R)-2-hydroxypropyl)piperidin-4-yl)oxy)phenyl)-1H-indazole-5-carboxamide]
< 100 nM: IC50 (human TTK; read-out: TTK IC50 Range) | GI50 ([1]; Homo sapiens, PA-1) | GI50 ([2]; Homo sapiens, HCT-116)
100 to 500 nM: GI50 (TICs (Ovarian 2393A); 144 h, Ovarian 2393A TICs) | GI50 (TICs (Colon 12); 216 h, Colon 12 TICs)

O=C(N[C@H](c1ccccn1)C1CC1)c1ccc2[nH]nc(-c3ccc(N4C5CCC4CC(O)C5)cc3)c2c1 (stereo partly drawn) [Example A307, N-((S)-cyclopropyl(pyridin-2-yl)methyl)-3-(4-((1R,3R,5S)-3-hydroxy-8-azabicyclo[3.2.1]octan-8-yl)phenyl)-1H-indazole-5-carboxamide]
< 100 nM: IC50 (human TTK; read-out: TTK IC50 Range) | GI50 ([1]; PA-1) | GI50 ([2]; HCT116)
100 to 500 nM: GI50 (TICs (Ovarian 2393A); Ovarian 2393A TICs) | GI50 (TICs (Colon 12); Colon 12 TICs)

O=C(N[C@H](c1ccccn1)C1CCCC1)c1ccc2[nH]nc(-c3ccc(N4[C@@H]5CCC[C@H]4COC5)cc3)c2c1 [Example A418, 3-(4-((1R,5S)-3-oxa-9-azabicyclo[3.3.1]nonan-9-yl)phenyl)-N-((S)-cyclopentyl(pyridin-2-yl)methyl)-1H-indazole-5-carboxamide]
< 100 nM: GI50 (TICs (Ovarian 2393A); 144 h, Ovarian 2393A TICs) | GI50 (TICs (Colon 12); 216 h, Colon 12 TICs) | IC50 (human TTK) | GI50 ([1]; Homo sapiens, PA-1) | GI50 ([2]; Homo sapiens, HCT-116)

CC(C)C[C@@H](NC(=O)c1ccc2[nH]nc(-c3ccc(N4C5CCC4CC(O)C5)cc3)c2c1)c1ccccn1 (stereo partly drawn) [Example A305, 3-(4-((1R,3R,5S)-3-hydroxy-8-azabicyclo[3.2.1]octan-8-yl)phenyl)-N-((R)-3-methyl-1-(pyridin-2-yl)butyl)-1H-indazole-5-carboxamide]
< 100 nM: GI50 (TICs (Ovarian 2393A); 144 h, Ovarian 2393A TICs) | GI50 (TICs (Colon 12); 216 h, Colon 12 TICs) | IC50 (human TTK) | GI50 ([1]; Homo sapiens, PA-1) | GI50 ([2]; Homo sapiens, HCT-116)

O=C(N[C@@H](c1ccccn1)C1CC1)c1ccc2[nH]nc(-c3ccc(N4[C@@H]5CC[C@H]4COC5)cc3)c2c1 [Example A422, 3-(4-((1R,5S)-3-oxa-8-azabicyclo[3.2.1]octan-8-yl)phenyl)-N-((R)-cyclopropyl(pyridin-2-yl)methyl)-1H-indazole-5-carboxamide]
100 to 500 nM: GI50 (TICs (Ovarian 2393A); 144 h, Ovarian 2393A TICs)
< 100 nM: GI50 (TICs (Colon 12); 216 h, Colon 12 TICs) | IC50 (human TTK; read-out: TTK IC50 Range) | GI50 ([1]; Homo sapiens, PA-1) | GI50 ([2]; Homo sapiens, HCT-116)

O=C(N[C@H](c1ccccc1Cl)C1CC1)c1ccc2[nH]nc(-c3ccc(OC4CC5CCC(C4)N5C4COC4)cc3)c2c1 (stereo partly drawn) [Example A349, N-((S)-(2-chlorophenyl)(cyclopropyl)methyl)-3-(4-(((1R,3R,5S)-8-(oxetan-3-yl)-8-azabicyclo[3.2.1]octan-3-yl)oxy)phenyl)-1H-indazole-5-carboxamide]
< 100 nM: GI50 (TICs (Ovarian 2393A); 144 h, Ovarian 2393A TICs) | GI50 (TICs (Colon 12); 216 h, Colon 12 TICs) | IC50 (human TTK; read-out: TTK IC50 Range) | GI50 ([1]; Homo sapiens, PA-1) | GI50 ([2]; Homo sapiens, HCT-116)

CC(C)C[C@H](NC(=O)c1ccc2[nH]nc(-c3ccc(N4C5CCC4CC(O)C5)cc3)c2c1)c1ccccn1 (stereo partly drawn) [Example A301, 3-(4-((1R,3S,5S)-3-hydroxy-8-azabicyclo[3.2.1]octan-8-yl)phenyl)-N-((S)-3-methyl-1-(pyridin-2-yl)butyl)-1H-indazole-5-carboxamide]
< 100 nM: GI50 (TICs (Ovarian 2393A); 144 h, Ovarian 2393A TICs) | GI50 (TICs (Colon 12); 216 h, Colon 12 TICs) | IC50 (human TTK) | GI50 ([1]; Homo sapiens, PA-1) | GI50 ([2]; Homo sapiens, HCT-116)

CC(C)[C@H](NC(=O)c1ccc2[nH]nc(-c3ccc(OC4CCN(C5COC5)CC4)cc3)c2c1)c1ccccc1Cl [Example A332, (S)-N-(1-(2-chlorophenyl)-2-methylpropyl)-3-(4-((1-(oxetan-3-yl)piperidin-4-yl)oxy)phenyl)-1H-indazole-5-carboxamide]
< 100 nM: GI50 (TICs (Ovarian 2393A); 144 h, Ovarian 2393A TICs) | GI50 (TICs (Colon 12); 216 h, Colon 12 TICs) | IC50 (human TTK; read-out: TTK IC50 Range) | GI50 ([1]; Homo sapiens, PA-1) | GI50 ([2]; Homo sapiens, HCT-116)

CC(C)(O)CN1CCC(Oc2ccc(-c3n[nH]c4ccc(C(=O)N[C@H](c5ccccn5)C5CC5)cc34)cc2)CC1 [Example A217, (S)-N-(cyclopropyl(pyridin-2-yl)methyl)-3-(4-((1-(2-hydroxy-2-methylpropyl)piperidin-4-yl)oxy)phenyl)-1H-indazole-5-carboxamide]
< 100 nM: IC50 (human TTK; read-out: TTK IC50 Range) | GI50 ([1]; Homo sapiens, PA-1) | GI50 ([2]; Homo sapiens, HCT-116)
100 to 500 nM: GI50 (TICs (Ovarian 2393A); 144 h, Ovarian 2393A TICs) | GI50 (TICs (Colon 12); 216 h, Colon 12 TICs)

CC(C)[C@H](NC(=O)c1ccc2[nH]nc(-c3ccc(N4CCCN(C5COC5)CC4)cc3)c2c1)c1ccccc1Cl [Example A369, (S)-N-(1-(2-chlorophenyl)-2-methylpropyl)-3-(4-(4-(oxelan-3-yl)-1,4-diazepan-l-yl)phenyl)-1H-indazole-5-carboxamide]
< 100 nM: GI50 (TICs (Ovarian 2393A); 144 h, Ovarian 2393A TICs) | GI50 (TICs (Colon 12); 216 h, Colon 12 TICs) | IC50 (human TTK; read-out: TTK IC50 Range) | GI50 ([1]; Homo sapiens, PA-1) | GI50 ([2]; Homo sapiens, HCT-116)

CN1[C@@H]2CC[C@H]1C[C@@H](Oc1ccc(-c3n[nH]c4ccc(C(=O)NC(c5ncccn5)C5CCCC5)cc34)cc1)C2 (stereo partly drawn) [Example A385, N-(cyclopentyl(pyrimidin-2-yl)methyl)-3-(4-(((1R,3R,5S)-8-methyl-8-azabicyclo[3.2.1]octan-3-yl)oxy)phenyl)-1H-indazole-5-carboxamide]
< 100 nM: GI50 (TICs (Ovarian 2393A); 144 h, Ovarian 2393A TICs) | IC50 (human TTK; read-out: TTK IC50 Range) | GI50 ([1]; Homo sapiens, PA-1) | GI50 ([2]; Homo sapiens, HCT-116)
100 to 500 nM: GI50 (TICs (Colon 12); 216 h, Colon 12 TICs)

O=C(NCC1(N2CCOCC2)CCCCC1)c1ccc2[nH]nc(-c3ccc(N4CCOCC4)cc3)c2c1 [Example A447, N-((1-morpholinocyclohexyl)methyl)-3-(4-morpholinophenyl)-1H-indazole-5-carboxamide]
< 100 nM: GI50 (TICs (Ovarian 2393A); [3]) | GI50 (TICs (Colon 12); 216 h, colon TICs, Alamar Blue) | IC50 (human TTK; read-out: TTK IC50 Range) | GI50 [1, 4] | GI50 [2, 5]
